Data taken from the NIST ThermoML archive (doi:10.1016/j.fluid.2010.08.022).

Settings: 101.33 kPa; for mass density: Vibrating tube method; for speed of sound: Sing-around technique in a fixed-path interferometer; for viscosity: Visco Elite L rheometer

CCCCCCCC/C=C\CCCCCCCC(=O)O.NCCO [2-hydroxyethylammonium oleate]
Settings	mass density [kg/m3]	speed of sound [m/s]	viscosity [mPa·s]
327.41 K, Liquid crystal of unknown type	917.867	–	–
327.66 K, Liquid crystal of unknown type	917.707	1414.3	–
327.91 K, Liquid crystal of unknown type	917.547	1413.5	–
328.16 K, Liquid crystal of unknown type	917.387	1412.7	–
328.41 K, Liquid crystal of unknown type	917.226	1412	–
328.66 K, Liquid crystal of unknown type	917.066	1411.2	–
328.9 K, Liquid crystal of unknown type	916.907	1410.4	–
329.16 K, Liquid crystal of unknown type	916.746	1409.6	–
329.41 K, Liquid crystal of unknown type	916.585	1408.9	–
329.66 K, Liquid crystal of unknown type	916.424	1408.1	–
329.91 K, Liquid crystal of unknown type	916.265	1407.3	–
330.16 K, Liquid crystal of unknown type	916.103	1406.5	–
330.41 K, Liquid crystal of unknown type	915.943	1405.8	–
330.66 K, Liquid crystal of unknown type	915.784	1405	–
330.91 K, Liquid crystal of unknown type	915.622	1404.2	–
331.16 K, Liquid crystal of unknown type	915.461	1403.5	–
331.4 K, Liquid crystal of unknown type	915.3	1402.7	–
331.66 K, Liquid crystal of unknown type	915.14	1401.9	–
331.91 K, Liquid crystal of unknown type	914.98	1401.2	–
332.16 K, Liquid crystal of unknown type	914.818	1400.4	–
332.41 K, Liquid crystal of unknown type	914.658	1399.6	–
332.66 K, Liquid crystal of unknown type	914.496	1398.8	–
332.91 K, Liquid crystal of unknown type	914.336	1398.1	–
333.16 K, Liquid crystal of unknown type	914.175	1397.3	–
333.41 K, Liquid crystal of unknown type	914.015	1396.5	–
333.66 K, Liquid crystal of unknown type	913.853	1395.7	–
333.91 K, Liquid crystal of unknown type	913.692	1395	–
334.16 K, Liquid crystal of unknown type	913.531	1394.2	–
334.41 K, Liquid crystal of unknown type	913.369	1393.4	–
334.66 K, Liquid crystal of unknown type	913.208	1392.6	–
334.91 K, Liquid crystal of unknown type	913.046	1391.9	–
335.16 K, Liquid crystal of unknown type	912.885	1391.1	–
335.4 K, Liquid crystal of unknown type	912.725	1390.3	–
335.66 K, Liquid crystal of unknown type	912.564	1389.6	–
335.91 K, Liquid crystal of unknown type	912.403	1388.8	–
336.16 K, Liquid crystal of unknown type	912.241	1388	–
336.41 K, Liquid crystal of unknown type	912.079	1387.2	–
336.66 K, Liquid crystal of unknown type	911.917	1386.5	–
336.91 K, Liquid crystal of unknown type	911.757	1385.8	–
337.16 K, Liquid crystal of unknown type	911.595	1385	–
337.41 K, Liquid crystal of unknown type	911.432	1384.2	–
337.66 K, Liquid crystal of unknown type	911.272	1383.5	–
337.91 K, Liquid crystal of unknown type	911.11	1382.7	–
338.15 K, Liquid crystal of unknown type	–	–	225.9
338.16 K, Liquid crystal of unknown type	910.95	1381.9	–
338.41 K, Liquid crystal of unknown type	910.787	1381.2	–
338.66 K, Liquid crystal of unknown type	910.626	1380.4	–
338.9 K, Liquid crystal of unknown type	910.464	1379.7	–
339.16 K, Liquid crystal of unknown type	910.301	1378.9	–
339.41 K, Liquid crystal of unknown type	910.142	1378.1	–
339.66 K, Liquid crystal of unknown type	909.978	1377.4	–
339.9 K, Liquid crystal of unknown type	909.815	1376.6	–
340.16 K, Liquid crystal of unknown type	909.655	1375.9	–
340.4 K, Liquid crystal of unknown type	909.492	1375.1	–
340.66 K, Liquid crystal of unknown type	909.33	1374.4	–
340.91 K, Liquid crystal of unknown type	909.169	1373.6	–
341.16 K, Liquid crystal of unknown type	909.006	1372.9	–
341.41 K, Liquid crystal of unknown type	908.843	1372.1	–
341.66 K, Liquid crystal of unknown type	908.682	1371.3	–
341.9 K, Liquid crystal of unknown type	908.521	1370.6	–
342.16 K, Liquid crystal of unknown type	908.356	1369.8	–
342.41 K, Liquid crystal of unknown type	908.195	1369.1	–
342.65 K, Liquid crystal of unknown type	908.033	1368.3	–
342.9 K, Liquid crystal of unknown type	907.872	1367.6	–
343.15 K, Liquid crystal of unknown type	907.717	1366.9	–
348.15 K, Liquid crystal of unknown type	–	–	129.1
353.15 K, Liquid crystal of unknown type	–	–	97.5
358.15 K, Liquid crystal of unknown type	–	–	79.2
368.15 K, Liquid	–	–	50.5
